Our source for the IC50 and decomposition on storage values is patent US8680251B2, “Triterpenoid 2-deoxy glycosides, method of preparation thereof and use thereof as medicaments” (Univerzita Palackeho V Olomouci, priority 2008, dated 2014).

Series [1] deals with CEM (T-lymfoblastic leukemia). Nature of the series: Cytotoxic MTT test, CEM. The format is cell-based. Conditions: CEM cells, 72 h. The source says: (§1) Cytotoxic MTT test on cell lines derived from normal tissues and tumors were used for assessing the antitumor activity of the novel compounds in vitro. We used namely the lines K562 (human myeloid leukemia), K562-tax (human myeloid leukemia resistant to taxol and overexpressing the protein of multiple drug resistance PgP), CEM (T-lymfoblastic leukemia), CEM-DNR-bulk (T-lymfoblastic leukemia resistant to doxorubicin, lacking the expression of the target gene for topoisomerase II alfa inhibitors and expressing the multiple drug resistance protein MRP1), line A549 (human lung adenocarcinoma), line HT-29 (human colorectal adenocarcinoma), MCF-7 (human breast adenocarcinoma, p53 wild type), HCT116 p53wt (human colorectal adenocarcinoma, wild-type p53), HCT116 p53mut (human colorectal adenocarcinoma with mutated p53), U87Mg (human glioblastoma). Expression characteristics, sensitivity profiles to classical antitumor drugs and methodology of the cytotoxic MTT test were repeatedly published (Nosková V. et al., Neoplasma 2002, S arek J. et al., J. Med. Chem., 2003, Dzubák P. et al., Bioorg. Med. Chem., 2006).
(§2) The MTT test was carried out according to the following procedure. The tested compound in six dilutions (final concentration of 250 μmol/l, another five concentrations were obtained by 4-fold, 16-fold, 64-fold, 256-fold and 1024-fold dilution of this solution) was added to tissue culture of cells in the cultivation plate wells. Each concentration was tested in doublet. The cell suspension was incubated in the environment containing the tested compound for 72 h at 37° C., in 5% CO2 atmosphere and 100% humidity. MTT—[3-(4,5-dimethylthiazol-2-yl)-2,5-difenyl-2H-tetrazolium bromid]—was then added to each well and the incubation was continued for additional 4 h. The incubation was finished by an addition of sodium dodecansulphonate and the percentage of surviving cells was determined spectrophotometrically at 540 nm. The concentration lethal for 50% of the tumor cells—IC50—was calculated from dose-response curves.

The test system of series [2] is MCF-7 (human breast adenocarcinoma, p53 wild type). Description: Cytotoxic MTT test, MCF-7. Type of series: cell-based. Conditions: 72 h.
Excerpt: as §1, §2

Series [3] has as its system CEM-DNR-bulk (T-lymfoblastic leukemia resistant to doxorubicin). Nature of the series: Cytotoxic MTT test, CEM-DNR-bulk. Conditions: CEM-DNR-BULK cells, 72 h. The format is cell-based.
Excerpt: as §1, §2

The test system of series [4] is K562 (human myeloid leukemia). Description: Cytotoxic MTT test, K562. The format is cell-based. As to conditions: K562 cells, 72 h.
Excerpt: as §1, §2

Series [5] relates to K562-tax (human myeloid leukemia resistant to taxol). Nature of the series: Cytotoxic MTT test, K562-tax. Type of series: cell-based. As to conditions: K562-tax cells, 72 h.
Excerpt: as §1, §2
(In general: Tetrazolium assays rely on reduction of a dye to a coloured formazan, in cell work by metabolically active cells.)

Series [6] relates to HT-29 (human colorectal adenocarcinoma). Description: Cytotoxic MTT test, HT-29. The format is cell-based. As to conditions: HT-29 cells, 72 h.
Excerpt: as §1, §2

A further series has as its system PC-3. Nature of the series: Cytotoxic MTT test, PC-3. Conditions: PC-3 cells, 72 h. The format is cell-based.
Series [7] concerns U87Mg (human glioblastoma). Nature of the series: Cytotoxic MTT test, U87Mg. Type of series: cell-based. As to conditions: U87Mg cells, 72 h.
Excerpt: as §1, §2

Series [8] has as its system HCT116 p53mut (human colorectal adenocarcinoma with mutated p53). Description: Cytotoxic MTT test, HCT116 p53mut. Type of series: cell-based. As to conditions: 72 h.
Excerpt: as §1, §2

Series [9] concerns HCT116 p53wt (human colorectal adenocarcinoma, wild-type p53). Nature of the series: Cytotoxic MTT test, HCT116 p53wt. Type of series: cell-based. As to conditions: 72 h.
Excerpt: as §1, §2

The nature of series [10]: Storage stability of cyclodextrin solution. Type of series: physicochemical. As to conditions: solution of 3a with 2-hydroxypropyl-γ-cyclodextrin in water/propylene glycol, freezer at −20 C, several months. How it is done:
2-hydroxypropyl-γ-cyclodextrin (7.00 g) was dissolved under vigorous stirring and at the temperature of 50° C. in a mixture of water (14.0 ml) and propylene glycol (6.0 ml). 2-deoxy galactoside 3a (1.00 g) is then added at once into the resulting colourless viscous solution and the mixture is vigorously stirred at the temperature of 50° C. Usually, 20 min is needed for complete dissolution. After complete dissolution of the triterpenoid, the resulting bright solution is cooled down to room temperature, filtered by an injection syringe filter (hydrophilic, pore size 0.22 μm) in order to be sterile and is placed to a refrigerator. […] The thus prepared formulation can be used for oral or, after optionally adding a saline solution, for intravenous administration.

As to `CC(=O)OC[C@H]1O[C@H](OC[C@@]23CC[C@]4(C)C(CCC5[C@@]6(C)CC[C@H](OC(C)=O)C(C)(C)C6CC[C@]54C)C2=C(C(C)C)C(=O)C3)C[C@@H](Br)[C@@H]1OC(C)=O` (stereo partly shown) [Compound 1c], the 50% inhibitory concentration (IC50) in series [1] stood at 3.8 µM; in series [2] (MCF-7 cells) it was 35.2 µM; in [3], 27 µM; in [4], 9 µM; in series [5], 22.6 µM; in series [6], 40.9 µM. Besides, the IC50 with PC-3 was at least 250 µM; in series [7] it was at least 250 µM; in [8] (HCT116 p53 mut cells), 14 µM; in series [9] (HCT116 p53wt cells) it was 19.1 µM.

With `CC(=O)OC[C@H]1O[C@H](OC[C@@]23CC[C@]4(C)C(CCC5[C@@]6(C)CC[C@H](OC(C)=O)C(C)(C)C6CC[C@]54C)C2=C(C(C)C)C(=O)C3)C[C@@H](OC(C)=O)[C@H]1OC(C)=O` (stereo partly shown) [Compound 1a], the IC50 in [1] is 1.8 µM; in series [2] (MCF-7 cells), 11.4 µM; in series [3], 12.5 µM; in [4] it was 2.4 µM; in [5], 9.8 µM; in series [6], 11.4 µM. Moreover, the IC50 in the series with PC-3 was 23.5 µM; in series [7], at least 250 µM; in series [8] (HCT116 p53 mut cells), 8.8 µM; in series [9] (HCT116 p53wt cells), 7.9 µM.

As to `CC(=O)OC[C@H]1O[C@H](OC[C@@]23CC[C@]4(C)C(CCC5[C@@]6(C)CC[C@H](OC(C)=O)C(C)(C)C6CC[C@]54C)C2=C(C(C)C)C(=O)C3)C[C@@H](OC(C)=O)[C@@H]1OC(C)=O` (stereo partly shown) [Compound 1b], the IC50 in series [1] was found to be 9.2 µM; in series [2] (MCF-7 cells), 17 µM; in series [3] it was 41.5 µM; in series [4] it was 6.4 µM; in [5] it was 9.5 µM; in series [6], 10.1 µM. The IC50 in the series with PC-3 is 39.3 µM; in [7], at least 250 µM; in [8] (HCT116 p53 mut cells) it was 12.4 µM; in series [9] (HCT116 p53wt cells), 8.6 µM.

Turning to `COC(=O)[C@@]12CC[C@]3(C)C(CCC4[C@@]5(C)CC[C@H](O[C@@H]6C[C@@H](O)[C@@H](O)[C@@H](CO)O6)C(C)(C)C5CC[C@]43C)C1=C(C(C)C)C(=O)C2` (stereo partly shown) [Compound 3a], the IC50 in series [1] was found to be 4.7 µM; in series [2] (MCF-7 cells), 13.6 µM; in [3], 34.4 µM; in [4], 11.5 µM; in series [5], 15.9 µM; in [6], 17.8 µM. In addition, the IC50 is 11.2 µM in the series on PC-3, 53 µM in [7], 17.5 µM in series [8] (HCT116 p53 mut cells) and 10.3 µM in series [9] (HCT116 p53wt cells). In addition, the decomposition on storage result in series [10] is “without any detectable decomposition”.

Consider `COC(=O)[C@@]12CC[C@]3(C)C(CCC4[C@@]5(C)CC[C@H](OC6CC(OC(C)=O)C(OC(C)=O)C(COC(C)=O)O6)C(C)(C)C5CC[C@]43C)C1=C(C(C)C)C(=O)C2` (stereo partly shown) [Compound 2b], for which the IC50 in series [1] (Homo sapiens, CCRF-CEM) was 0.6 µM; in [2] (Homo sapiens, MCF7, MCF-7 cells) it was 2.5 µM; in [3], 25 µM; in series [4] (Homo sapiens) it was 0.6 µM; in [5] (Homo sapiens), 3 µM; in series [6] (Homo sapiens), 2.4 µM. In addition, the IC50 was 22.1 µM with PC-3 (Homo sapiens); at least 250 µM in series [7] (Homo sapiens, U-87 MG); 3.5 µM in series [8] (Homo sapiens, HCT-116, HCT116 p53 mut cells); 1.6 µM in series [9] (Homo sapiens, HCT-116, HCT116 p53wt cells).

As for `COC(=O)[C@@]12CC[C@]3(C)C(CCC4[C@@]5(C)CC[C@H](O[C@@H]6C[C@@H](O)[C@H](O)[C@@H](CO)O6)C(C)(C)C5CC[C@]43C)C1=C(C(C)C)C(=O)C2` (stereo partly shown) [Compound 3b], the IC50 in series [1] came to 6.2 µM; in [2] (MCF-7 cells), 18.4 µM; in [3], 25 µM; in series [4] it was 11.6 µM; in series [5], 12.9 µM; in series [6], 18.9 µM. Moreover, the IC50 in the series with PC-3 amounted to 36.4 µM; in [7], 42.7 µM; in series [8] (HCT116 p53 mut cells), 21 µM; in [9] (HCT116 p53wt cells), 11.5 µM.

By IC50 is commonly meant the concentration that gives 50% inhibition.
